Tests used:
[1] = tested on: human colon cancer HT-29 transplanted tumor; test: Inhibitory effect on in vivo tumor growth, human colon cancer HT-29 transplanted tumor model in nude mice; details: HT-29 in female BALB/c nude mice; 40 mg·kg^−1 (as content of active agent) IV Q4D×3; experiment ended after 21 days; n=5
Experimental: HT-29 cells in logarithmic phase of growth were collected. […] Cell suspension was aspirated with a 1 mL syringe, and injected subcutaneously to the anterior right armpit of nude mice. Each animal was inoculated with 100 μL (6×10^6 cells/animal), and the HT-29 transplated tumor model in nude mice was established. Animal status and the condition of tumor growth were observed regularly after inoculation, an electronic vernier caliper was used to measure the tumor diameters, the data was directly input to an Excel spreadsheet, and the tumor volumes were calculated. […] The tumor diameters were measured twice a week after the initiation of the experiment, the tumor volumes were calculated, and the body weights of the animals were weighed and recorded at the same time.
The calculation formula of the tumor volume (TV) was as follows: TV(mm^3)=l×w^2/2
(§1) The first administration was initiated on the day of grouping, the experiment was ended after 21 days, and the volumes of administration were all 10 mL·kg^−1. […]
On the last day of the experiment, the animals were euthanized (CO2) after the body weights were weighed and the tumor diameters were measured. The tumor tissues were excised, weighed and photographed (respectively photographed according to the following combinations), and the tumor weight inhibition rates were calculated. […]

[2] = tested on: human gastric cancer NCI-N87 transplanted tumor; test: Inhibitory effect on in vivo tumor growth, human gastric cancer NCI-N87 cell strain transplanted tumor model in nude mice; details: 40 mg·kg^−1 (as active agent) IV Q4D × 3, n=5
Experimental: NCI-N87 cells in logarithmic phase of growth were collected. […] Cell suspension was aspirated with a 1 mL syringe, and injected subcutaneously to the anterior right armpit of the nude mice. Each animal was inoculated with 100 μL (5×10^6 cells/animal), and the NCI-N87 transplanted tumor model in nude mice was established. Animal status and the condition of tumor growth were observed regularly after inoculation, an electronic vernier caliper was used to measure the tumor diameters, the data was directly input to an Excel spreadsheet, and the tumor volumes were calculated. […] The tumor diameters were measured twice a week after the initiation of the experiment, the tumor volumes were calculated, and the body weights of the animals were weighed and recorded at the same time.
The calculation formula of the tumor volume (TV) was as follows: TV(mm^3)=l×w^2/2 wherein l represented the long diameter of a tumor (mm), and w represented the short diameter of a tumor (mm).
as §1
After the experiment was ended, the animals were euthanized (CO2) after the body weights were weighed and the tumor diameters were measured. The tumor tissues were excised and weighed, and the tumor weight inhibition rates were calculated. […]

[3] = tested on: human pancreatic cancer MIA Paca-2 transplanted tumor; test: Inhibitory effect in human pancreatic cancer MIA Paca-2 xenograft model in nude mice; type: in vivo; details: MIA Paca-2 in female BALB/c-nu/nu nude mice; 40 mg·kg^−1 IV Q4D×3; 3 weeks; n=5
Experimental: The cells were placed in a 37° C. incubator containing 5% CO2 to cultivate.
A subcutaneous tumor xenograft model in nude mice was established by cell inoculation method: tumor cells in logarithmic phase of growth were collected, counted and then resuspended in 1×PBS, and the concentration of the cell suspension was adjusted to 3×10^7/mL. 1 mL syringes (4 gauge needle) were used to inoculate the tumor cells to the right back of the nude mice subcutaneously, 3×10^6/0.1 mL/mice. […]
(§2) The experimental period lasted for 3 weeks, and the body weights and the tumor sizes of the animals were measured twice a week during the experiment. The clinical symptoms were observed and recorded daily. On the last day of the experiment, the animals were sacrificed, the body weights were weighed, and the tumors were excised, weighed and recorded by photographing.
(§3) The calculation formula of the tumor volume (TV) was: TV=a×b^2/2, wherein a and b represented the measured length and width of the tumor, respectively. The calculation formula of the relative tumor volume (RTV) was: RTV=Vt/V0, wherein V0 was the tumor volume measured at the time of grouping and first administration, and Vt was the tumor volume at the time of a measurement.

[4] = tested on: orthotopic U87MG brain glioma; type: in vivo, human; details: orthotopic U87MG brain glioma in nude mice; 40 mg·kg^−1 (as active agent) IV Q4D × 3; n=5
Experimental: U87MG cells in logarithmic phase of growth were collected. […] The cells were charged into a 50 mL centrifuge tube after being pipetted with a pipettor to make them evenly dispersed, and the centrifuge tube was placed in an ice box. Cell suspension was aspirated with a 1 mL syringe, 1 μL of human brain glioma cell (U87MG cells) cultured in vitro was inoculated (1×10^5 cells/animal) using microinjection method via the guidance of a stereotactic apparatus for animals, the orthotopic U87MG brain glioma model was established, and animal status was observed periodically after inoculation.
The first administration was initiated on the day of grouping, the experiment was ended after 21 days, and the volumes of administration were all 10 mL·kg^−1. Group 1 was a solvent control group, and was given blank solvent by intravenous injection via tail once every 4 days for a total of 3 times (Q4D×3).
The first administration was initiated on the day of grouping, the experiment was ended after 21 days, and the volumes of administration were all 10 mL·kg^−1.
Groups with 10-hydroxycamptothecin as the active agent (Groups 14 to 18). The first administration was initiated on the day of grouping, the experiment was ended after 21 days, and the volumes of administration were all 10 mL·kg^−1.
Groups with rubitecan as the active agent (Groups 19 to 23). […]
The survival time of the animals were recorded.

[5] = tested on: human breast cancer MDA-MB-231 transplanted tumor; test: Inhibitory effect in human breast cancer MDA-MB-231 xenograft model in nude mice; type: in vivo; details: MDA-MB-231 in female BALB/c nude mice; 40 mg·kg^−1 IV Q4D×3; 3 weeks; n=5
Experimental: MDA-MB-231 cells were cultured in DMEM, which contained 10% fetal bovine serum FBS (GIBCO, USA). The cells were placed in a 37° C. incubator containing 5% CO2 to cultivate.
A subcutaneous tumor xenograft model in nude mice was established by cell inoculation method: tumor cells in logarithmic phase of growth were collected, counted and then resuspended in 1×PBS, and the concentration of the cell suspension was adjusted to 1×10^7/mL. 1 mL syringes (4 gauge needle) were used to inoculate the tumor cells to the right back of the nude mice subcutaneously, 1×10^6/0.1 mL/mice. […]
as §2, §3

Compound: CCc1c2c(nc3ccc(OC(=O)N4CCC(N5CCCCC5)CC4)cc13)-c1cc3c(c(=O)n1C2)COC(=O)[C@]3(O)CC [irinotecan]
- Relative tumor proliferation rate (% T/C) [1]: 69%
- Average relative tumor proliferation rate (% T/C) [2]: 63.2%
- Relative tumor proliferation rate (% T/C) [3]: 59.4%
- Median survival time [4]: 27 days
- Relative tumor proliferation rate (% T/C) [5]: 44.8%^

Reference: patent US10869863B2, “Multi-arm polymeric targeting anti-cancer conjugate” (priority 2016, dated 2020)
